This note sets out measurements from patent publication EP1137645B1, “ALPHA-METHYLBENZYL-CONTAINING THIOUREA INHIBITORS OF HERPES VIRUSES CONTAINING A […] GROUP” (Wyeth, priority 1998, dated 2000).

Values after ≈ are worked out from the molar mass of the structure shown. Where two headings read alike, the source gives them in different places.

The test system of assay [1] is HSV- I. Briefly: HSV antiviral (ELISA) assay. It is filed as cell-based. The note with it: read-out: IC50 (ug/ml) HSV. Put shortly:
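IC50 from fluorescence versus untreated control in a cell ELISA: anti-glycoprotein D antibody, β-galactosidase-conjugated secondary, 4-methyl umbelliferone read at 365/450 nm. Vero cells (2% FBS DMEM) received compound 30 min pre-infection with HSV-1 at MOI 0.006, fixed ~24 h post-infection.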
(In general: ELISA stands for enzyme-linked immunosorbent assay.)

Assay [2] deals with VZV strain Ellen. As to the kind of experiment: VZV antiviral (ELISA) assay. It is filed as cell-based. Put shortly: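 HFF cells infected with VZV Ellen at multiplicity below 0.1 overnight, then mixed infected/uninfected cells seeded with compound in DMEM/2% FBS and incubated three days at 37°C, 5% CO2.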
The test system of assay [3] is HCMV recombinant mutant virus whose genome contains the prokaryotic beta-glucuronidase gene. As to the kind of experiment: microbe, parasite or virus in culture. Format: cell-based, human cytomegalovirus. The note with it: Human betaherpesvirus 5, Fibroblast. Put shortly:
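Antiviral IC50 estimated from reduced reporter activity across compound amounts: lysates prepared 96 h after infection were tested with p-nitrophenyl- or methylumbelliferyl-glucuronide. Cells were human foreskin fibroblasts, infected alongside inhibitor with HCMV (e.g. RV145) expressing viral promoter-driven beta-glucuronidase.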

Setting [4] is: Human alphaherpesvirus 3, HFF, read-out: IC50 (ug/ml) VZV, VZV strain Ellen, HFF cells, ELISA.
The mark [5] stands for this setting: read-out: IC50 ug/ml HCMV, HCMV, human foreskin fibroblasts.
The mark [6] stands for this setting: Human alphaherpesvirus 3, VZV strain Ellen, HFF cells, ELISA, read-out: IC50 (ug/ml) VZV.

For `O=C(Nc1ccc(NC(=S)Nc2ccc(OC(F)(F)F)c(Br)c2)cc1)c1ccccc1F` [Example 549, N-{4-[3-(3-Bromo-4-trifluoromethoxy-phenyl)-thioureido]-phenyl}-2-fluoro-benzamide], the IC50 in assay [1] (Vero), in assay [2] (setting [4]) and in assay [3] (setting [5]) was over 10 µg/mL in each case.

As for `O=C(Nc1ccc(NC(=S)NCCc2cccc(F)c2)cc1)c1ccccc1F` [Example 552, 2-Fluoro-N-(4-{3-[2-(3-fluoro-phenyl)-ethyl]-thioureido}-phenyl)-benzamide], the IC50 in assay [1] (HSV- I, Vero cells, ELISA) was over 10 µg/mL; in assay [2] (setting [6]) it was over 10 µg/mL; in assay [3] (read-out: IC50 ug/ml HCMV), over 0.5 µg/mL.

With `O=C(Nc1ccc(NC(=S)NCCc2ccc(F)cc2)cc1)c1ccccc1F` [Example 553, 2-Fluoro-N-(4-{3-[2-(4-fluoro-phenyl)-ethyl]-thioureido}-phenyl)-benzamide], the IC50 in assay [1] (HSV- I, Vero cells, ELISA) is over 10 µg/mL; in assay [2] (setting [6]), 7 µg/mL (≈ 17 µM); in assay [3] (read-out: IC50 ug/ml HCMV), over 0.5 µg/mL.

`O=C(Nc1ccc(NC(=S)NCCc2cccc(Cl)c2)cc1)c1ccccc1F` [Example 563, N-(4-{3-[2-(3-Chloro-phenyl)-ethyl]-thioureido}-phenyl)-2-fluoro-benzamide]: the IC50 was over 10 µg/mL in assay [1] (Vero), 9 µg/mL (≈ 21 µM) in assay [2] (setting [4]) and over 0.5 µg/mL in assay [3] (setting [5]).

With `CC(NC(=S)Nc1ccc(NC(=O)c2ccccc2F)cc1)c1ccccc1` (stereo not drawn) [Example 589, 2-Fluoro-N-{4-[3-(1-phenyl-ethyl)-thioureido]-phenyl}-benzamide], the IC50 is over 10 µg/mL in assay [1] (HSV- I, Vero cells, ELISA); 0.36 µg/mL (≈ 0.915 µM) in assay [2] (setting [6]); 7 µg/mL (≈ 17.8 µM) in assay [3] (read-out: IC50 ug/ml HCMV).

With `CC(NC(=S)Nc1ccc(NC(=O)c2ccccc2F)cc1)c1ccc(F)cc1` (stereo not drawn) [Example 591, 2-Fluoro-N-(4-{3-[1-(4-fluoro-phenyl)-ethyl]-thioureido}-phenyl)-benzamide], the IC50 is over 10 µg/mL in assay [1] (HSV- I, Vero cells, ELISA); 1.5 µg/mL (≈ 3.65 µM) in assay [2] (setting [6]); 7 µg/mL (≈ 17 µM) in assay [3] (read-out: IC50 ug/ml HCMV).

For the compound `CC(C)CN(C)c1cc(NC(=S)Nc2ccc(NC(=O)c3ccccc3F)cc2)cc(C(F)(F)F)c1` [Example 596, 2-Fluoro-N-(4-{3-[3-(isobutyl-methyl-amino)-5-trifluoromethyl-phenyl]-thioureido}-phenyl)-benzamide], the results for the IC50 in assay [1] (Vero), in assay [2] (setting [4]) and in assay [3] (setting [5]) were over 10 µg/mL, over 10 µg/mL and 2 µg/mL (≈ 3.86 µM), respectively.

Consider `CCCCN(C)c1cc(NC(=S)Nc2ccc(NC(=O)c3ccccc3F)cc2)cc(C(F)(F)F)c1` [Example 598, N-(4-{3-[3-(Butyl-methyl-amino)-5-trifluoromethyl-phenyl]-thioureido}-phenyl)-2-fluoro-benzamide], for which the IC50 in assay [1] (Vero), in assay [2] (setting [4]) and in assay [3] (setting [5]) was over 10 µg/mL in each case.

In the case of `O=C(Nc1ccc(NC(=S)NCCCc2ccccc2)cc1)c1ccccc1F` [Example 628, 2-Fluoro-N-{4-[3-(3-phenyl-propyl)-thioureido]-phenyl}-benzamide], the IC50 in assay [1] (Vero) is over 10 µg/mL; in assay [2] (setting [4]), 10 µg/mL (≈ 24.5 µM); in assay [3] (setting [5]) it was over 10 µg/mL.

With `CN(C)c1cc(CNC(=S)Nc2ccc(NC(=O)c3ccccc3F)cc2)cc(C(F)(F)F)c1` [Example 636, N-{4-[3-(3-Dimethylamino-5-trifluoromethyl-benzyl)-thioureido]-phenyl}-2-fluoro-benzamide], the IC50 in assay [1] (Vero) was over 10 µg/mL; in assay [2] (setting [4]), 5 µg/mL (≈ 10.2 µM); in assay [3] (setting [5]), over 10 µg/mL.

As for `COc1cccc(C(=O)Nc2ccc(NC(=S)NC(C)c3ccc(F)cc3)cc2)c1` (stereo not drawn) [Example 753, N-(4-{3-[1-(4-Fluoro-phenyl)-ethyl]-thioureido}-phenyl)-3-methoxybenzamide], the IC50 in assay [1] (Vero) was over 10 µg/mL; in assay [2] (setting [4]), over 7.5 µg/mL; in assay [3] (setting [5]) it was over 0.5 µg/mL.

On to `COc1ccc(C(=O)Nc2ccc(NC(=S)NC(C)c3ccc(F)cc3)cc2)cc1` (stereo not drawn) [Example 754, N-(4-{3-[1-(4-Fluoro-phenyl)-ethyl]-thioureido}-phenyl)-4-methoxy-benzamide], for which the IC50 in assay [1] (Vero) was over 10 µg/mL; in assay [2] (setting [4]), 0.2 µg/mL (≈ 0.472 µM); in assay [3] (setting [5]), over 10 µg/mL.

As to `CC(NC(=S)Nc1ccc(NC(=O)c2ccccc2Cl)cc1)c1ccc(F)cc1` (stereo not drawn) [Example 755, 2-Chloro-N-(4-{3-[1-(4-fluoro-phenyl)-ethyl]-thioureido}-phenyl)-benzamide], the values for the IC50 in assay [1] (Vero), in assay [2] (setting [4]) and in assay [3] (setting [5]) were over 10 µg/mL, 7 µg/mL (≈ 16.4 µM) and over 10 µg/mL, respectively.

On to `CC(NC(=S)Nc1ccc(NC(=O)c2ccc(Cl)cc2)cc1)c1ccc(F)cc1` (stereo not drawn) [Example 756, 4-Chloro-N-(4-{3-[1-(4-fluoro-phenyl)-ethyl]-thioureido}-phenyl)-benzamide], for which the results for the IC50 in assay [1] (Vero), in assay [2] (setting [4]) and in assay [3] (setting [5]) were over 10 µg/mL, 0.3 µg/mL (≈ 0.701 µM) and over 10 µg/mL, respectively.

`CC(=O)Oc1ccc(C(=O)Nc2ccc(NC(=S)NC(C)c3ccc(F)cc3)cc2)cc1` (stereo not drawn) [Example 757, Acetic acid 4-(4-{3-[1-(4-fluoro-phenyl)-ethyl]-thioureido}-phenylcarbamoyl)-phenyl ester]: the IC50 was over 10 µg/mL in assay [1] (Vero), 1.5 µg/mL (≈ 3.32 µM) in assay [2] (setting [4]) and over 10 µg/mL in assay [3] (setting [5]).

Consider `CC(NC(=S)Nc1ccc(NC(=O)c2ccccc2)cc1)c1ccc(F)cc1` (stereo not drawn) [Example 758, N-(4-{3-[1-(4-Fluoro-phenyl)-ethyl]-thioureido}-phenyl)-benzamide], for which the IC50 was over 10 µg/mL in assay [1] (HSV- I, Vero cells, ELISA); over 10 µg/mL in assay [2] (setting [6]); over 10 µg/mL in assay [3] (read-out: IC50 ug/ml HCMV).

`CC(NC(=S)Nc1ccc(NC(=O)c2ccc(O)cc2)cc1)c1ccc(F)cc1` (stereo not drawn) [Example 760, N-(4-{3-[1-(4-Fluoro-phenyl)-ethyl]-thioureido}-phenyl)-4-hydroxy-benzamide]: the IC50 in assay [1] (HSV- I, Vero cells, ELISA) is over 10 µg/mL; in assay [2] (setting [6]) it was over 10 µg/mL; in assay [3] (read-out: IC50 ug/ml HCMV), over 10 µg/mL.

As to `CC(NC(=S)Nc1ccc(NC(=O)c2cccc(Cl)c2)cc1)c1ccc(F)cc1` (stereo not drawn) [Example 761, 3-Chloro-N-(4-{3-[1-(4-fluoro-phenyl)-ethyl]-thioureido}-phenyl)-benzamide], the results for the IC50 in assay [1] (Vero), in assay [2] (setting [4]) and in assay [3] (setting [5]) were 10 µg/mL (≈ 23.4 µM), over 10 µg/mL and 1.5 µg/mL (≈ 3.51 µM), respectively.

Consider `CCCCC(NC(=S)Nc1ccc(NC(=O)c2ccccc2F)cc1)c1ccc(F)cc1` (stereo not drawn) [Example 773, 2-Fluoro-N-(4-{3-[1-(4-fluoro-phenyl)-pentyl]-thioureido}-phenyl)-benzamide], for which the results for the IC50 in assay [1] (Vero), in assay [2] (setting [4]) and in assay [3] (setting [5]) were over 10 µg/mL, over 7.5 µg/mL and 1.2 µg/mL (≈ 2.65 µM), respectively.

For the compound `O=C(Nc1ccc(NC(=S)NC(Cc2ccccc2)c2ccc(F)cc2)cc1)c1ccccc1F` (stereo not drawn) [Example 774, 2-Fluoro-N-(4-{3-[1-(4-fluoro-phenyl)-2-phenyl-ethyl]-thioureido}-phenyl)-benzamide], the results for the IC50 in assay [1] (Vero), in assay [2] (setting [4]) and in assay [3] (setting [5]) were over 10 µg/mL, over 7.5 µg/mL and 0.5 µg/mL (≈ 1.03 µM), respectively.

Take `Cc1ccccc1C(C)NC(=S)Nc1ccc(NC(=O)c2ccccc2F)cc1` (stereo not drawn) [Example 775, 2-Fluoro-N-{4-[3-(1-o-tolyl-ethyl)-thioureido]-phenyl}-benzamide]: the IC50 was over 10 µg/mL in assay [1] (Vero), over 7.5 µg/mL in assay [2] (setting [4]) and 1 µg/mL (≈ 2.45 µM) in assay [3] (setting [5]).

With `Cc1cccc(C(C)NC(=S)Nc2ccc(NC(=O)c3ccccc3F)cc2)c1` (stereo not drawn) [Example 776, 2-Fluoro-N-{4-[3-(1-m-tolyl-ethyl)-thioureido]-phenyl}-benzamide], the IC50 is over 10 µg/mL in assay [1] (Vero), over 7.5 µg/mL in assay [2] (setting [4]) and 0.9 µg/mL (≈ 2.21 µM) in assay [3] (setting [5]).

For `COc1ccc(C(C)NC(=S)Nc2ccc(NC(=O)c3ccccc3F)cc2)cc1` (stereo not drawn) [Example 777, 2-Fluoro-N-(4-{3-[1-(4-methoxy-phenyl)-ethyl]-thioureido}-phenyl)-benzamide], the IC50 in assay [1] (Vero) was over 10 µg/mL; in assay [2] (setting [4]) it was over 7.5 µg/mL; in assay [3] (setting [5]), 1.7 µg/mL (≈ 4.01 µM).

Consider `CC(NC(=S)Nc1ccc(NC(=O)c2ccccc2F)cc1)c1ccccc1F` (stereo not drawn) [Example 778, 2-Fluoro-N-(4-{3-[1-(2-fluoro-phenyl)-ethyl]-thioureido}-phenyl)-benzamide], for which the IC50 in assay [1] (HSV- I, Vero cells, ELISA) was over 10 µg/mL; in assay [2] (setting [6]) it was 3 µg/mL (≈ 7.29 µM); in assay [3] (read-out: IC50 ug/ml HCMV) it was 0.8 µg/mL (≈ 1.94 µM).

As for `CC(NC(=S)Nc1ccc(NC(=O)c2ccccc2F)cc1)c1cccc(Cl)c1` (stereo not drawn) [Example 779, N-(4-{3-[1-(3-Chloro-phenyl)-ethyl]-thioureido}-phenyl)-2-fluoro-benzamide], the results for the IC50 in assay [1] (Vero), in assay [2] (setting [4]) and in assay [3] (setting [5]) were over 10 µg/mL, over 7.5 µg/mL and 1.2 µg/mL (≈ 2.8 µM), respectively.

Take `CC(NC(=S)Nc1ccc(NC(=O)c2ccccc2F)cc1)c1cccc(Br)c1` (stereo not drawn) [Example 780, N-(4-{3-[1-(3-Bromo-phenyl)-ethyl]-thioureido}-phenyl)-2-fluoro-benzamide]: the IC50 in assay [1] (Vero) was over 10 µg/mL; in assay [2] (setting [4]), 1.2 µg/mL (≈ 2.54 µM); in assay [3] (setting [5]) it was 1 µg/mL (≈ 2.12 µM).

Consider `CC(NC(=S)Nc1ccc(NC(=O)c2ccccc2F)cc1)c1ccc(Cl)cc1` (stereo not drawn) [Example 781, N-(4-{3-[1-(4-Chloro-phenyl)-ethyl]-thioureido}-phenyl)-2-fluoro-benzamide], for which the IC50 was over 10 µg/mL in assay [1] (Vero), 0.6 µg/mL (≈ 1.4 µM) in assay [2] (setting [4]) and 1.8 µg/mL (≈ 4.21 µM) in assay [3] (setting [5]).

As to `Cc1ccc(C(C)NC(=S)Nc2ccc(NC(=O)c3ccccc3F)cc2)cc1` (stereo not drawn) [Example 782, 2-Fluoro-N-{4-[3-(1-p-tolyl-ethyl)-thioureido]-phenyl}-benzamide], the figures for the IC50 in assay [1] (Vero), in assay [2] (setting [4]) and in assay [3] (setting [5]) were over 10 µg/mL, 3 µg/mL (≈ 7.36 µM) and 0.9 µg/mL (≈ 2.21 µM), respectively.
